Data taken from paper PMC5131319, “Occurrence, temporal trends, and half-lives of perfluoroalkyl acids (PFAAs) in occupational workers in China” (Scientific Reports, 2016).
“And” between values parts separate entries of the source, which are not always exact repeats. Equal values may be shown once.

Tests used:
[1] = Half-life estimated by annual decline rates of serum PFAAs (first-order model); type: in vivo, human
Excerpt: Olsen et al.[21] found linear relationship between the logarithm of serum PFAAs concentration and time, and a first order model was adopted to estimate the half-lives of PFAAs. The elimination of PFAAs in humans was also described with the following equation: […]
If we set C(t) as 1/2C0, then the half-life
where k is the elimination rate constant. We calculated k using two approaches in the present study. In the first approach, k is defined as Cltotal/Vd, where Vd stands for the volume of distribution of PFAAs in the human body. Cltotal represents the total daily PFAAs clearance in the human body; for men and women older than 50, it refers to renal clearance, while for young women, it is defined as the sum of menstrual clearance and renal clearance. To keep consistency with other studies, Vd of PFOS and PFHxS were set at 230 mL kg^−1, and Vd of PFOA was set at 170 mL kg^−1 in this study. In the second approach, k is defined as the average annual decline rates of PFAAs in workers who participated in this study.
Serum PFAAs of workers were sequentially measured for 5 years, and they fluctuated during our sampling period, although different serum PFAAs decreased in certain years. […] For PFOA, 31 out of 42 workers decreased in the period of 2011–2012, and the serum PFOA concentration dropped by 41%. […] We assumed that there were no new inputs of PFAAs in these workers, and thus k in Eq (2) was set as the average annual serum PFAA decline rate. The half-lives of PFHxS, PFOA, and PFOS estimated by Eq (2) were 3.6, 1.7, and 1.9 years.

[2] = PFAA concentration in serum of occupational workers (HPLC-ESI/MS/MS); type: in vivo, human; design: Serum PFAA level: unit: ng/mL; conditions: for Serum concentration, geometric mean: all occupational workers
Experimental: The selected fluorochemical plant (Henxin Chemical Plant) in this study is one of the largest producers of PFOS-related chemicals in China and is located in Yingcheng, Hubei province. Perfluoroalkyl sulfonic acids (PFSAs) and perfluorotertiary amines are synthesized through an electro-chemical fluorination (ECF) process. We collected paired serum and urine samples from the occupational workers in the plant for five consecutive years, and the sampling activities were carried out in Nov. 2008, Nov. 2009, Nov. 2010, Dec. 2011, and Dec 2012, respectively. The Medical Research Ethics Committee, School of Medicine, Jianghan University, approved the ethics of this study, and all methods were performed in accordance with the relevant guidelines and regulations, moreover, all volunteers gave written informed consent. Demographic information of the donors, including gender, age, length of service, and work assignment, was collected with a questionnaire (Table S1). The sampled population included a total of 302 occupational workers, of which there were 89 female and 213 male participants. In total, 302 serum and 274 urine samples were collected.
The participants were told not to eat breakfast before the sampling, and morning urine samples and blood samples were collected. Serum was separated from the blood by centrifugation at 1100 × g at 4 °C for 10 min and then placed on ice. Serum samples were then transferred to our laboratory on the same day and stored in polypropylene containers at −20 °C until analysis.
All pre-treatment methods and instrument analysis of PFAAs in serum and urine samples are based on previous studies with minor modifications (see Supplementary Information)[3][31]. Based on the PFAA profiles in environmental matrices around the same plant in our previous study, only 3 main PFAAs, PFHxS, PFOA, and PFOS, were analyzed in the obtained serum and urine samples. Instrumental analysis of the PFAAs was performed by a HPLC-ESI/MS/MS system (HPLC: Waters 2695, MS: Waters Quattro Premier XE). The limits of detection (LODs) of PFHxS, PFOA, and PFOS were 0.020, 0.063, and 0.018 ng mL^−1 for serum samples and 0.008, 0.025, and 0.007 ng mL^−1 for urine samples, respectively. A procedural blank was performed for every batch of seven samples, and all of the blank levels were below the LODs. […] Details of quality assurance and quality control of the chemical analysis can be found in the Supplementary Information.

[3] = Electrolytic Department, length of service < 1 year
[4] = Fabric finishing agent department, N 8
[5] = Management Office, length of service 1-3 years
[6] = Management Office, length of service < 1 year
[7] = Management Office, length of service >3 years
[8] = Research Building, length of service 1-3 years
[9] = Research Building, length of service >3 years
[10] = Sulfonation Department, length of service 1-3 years
[11] = Sulfonation Department, length of service < 1 year
[12] = Sulfonation Department, length of service >3 years
[13] = workers with service length 1–3 years
[14] = workers with service length less than 1 year
[15] = workers with service length more than 3 years

**Q.** What does the source list for `O=C(O)C(F)(F)C(F)(F)C(F)(F)C(F)(F)C(F)(F)C(F)(F)C(F)(F)F` [PFOA, perfluorooctanoic acid]?
**A.** Drop of serum concentration ([1]; 2011–2012, 42 workers): 41%; half-life ([1]; human, k = average annual serum decline rate, no new inputs assumed, two time points): 621 days; Serum concentration, mean ([2]; All workers, N 302): 1052 ng/mL; Serum concentration, median ([2]; All workers, N 302): 427 ng/mL; Serum concentration, range ([2]; All workers, N 302): 2.5 to 32000 ng/mL; Serum PFAA level [2, 3]: 118; Serum concentration, mean ([2]; Electrolytic department, N 74): 2337 ng/mL; Serum concentration, median ([2]; Electrolytic department, N 74): 1126 ng/mL; Serum concentration, range ([2]; Electrolytic department, N 74): 55.9 to 32000 ng/mL; Serum concentration, mean [2, 4]: 606 ng/mL; Serum concentration, median [2, 4]: 114 ng/mL; Serum concentration, range [2, 4]: 51 to 2600 ng/mL; Serum PFAA level [2, 5]: 48.3; Serum PFAA level [2, 6]: 9.9; Serum PFAA level [2, 7]: 167; Serum concentration, mean ([2]; Management office, N 92): 362 ng/mL; Serum concentration, median ([2]; Management office, N 92): 101 ng/mL; Serum concentration, range ([2]; Management office, N 92): 2.5 to 4380 ng/mL; Serum PFAA level [2, 8]: 124; Serum PFAA level [2, 9]: 276; Serum concentration, mean ([2]; Research building, N 27): 404 ng/mL; Serum concentration, median ([2]; Research building, N 27): 142 ng/mL; Serum concentration, range ([2]; Research building, N 27): 4.7 to 2920 ng/mL; Serum PFAA level [2, 10]: 371; Serum PFAA level [2, 11]: 185; Serum PFAA level [2, 12]: 896; Serum concentration, mean ([2]; Sulfonation department, N 101): 929 ng/mL; Serum concentration, median ([2]; Sulfonation department, N 101): 603 ng/mL; Serum concentration, range ([2]; Sulfonation department, N 101): 4.9 to 4630 ng/mL; Serum concentration, geometric mean [2]: 334 ng/mL; Average serum concentration (Average ± SD) ([2]; female workers, n 89): 659 ± 743 ng/mL; concentration at 2008 calendar year ([2]; human, serum, other: occupational exposure, 46 workers sampled at least three times, 2008, read-out: Serum concentration, GM): 368 ng/mL; concentration at 2009 calendar year ([2]; human, serum, other: occupational exposure, 46 workers sampled at least three times, 2009, read-out: Serum concentration, GM): 252 ng/mL; concentration at 2010 calendar year ([2]; human, serum, other: occupational exposure, 46 workers sampled at least three times, 2010, read-out: Serum concentration, GM): 622 ng/mL; concentration at 2011 calendar year ([2]; human, serum, other: occupational exposure, 46 workers sampled at least three times, 2011, read-out: Serum concentration, GM): 692 ng/mL; concentration at 2012 calendar year ([2]; human, serum, other: occupational exposure, 46 workers sampled at least three times, 2012, read-out: Serum concentration, GM): 416 ng/mL; Average serum concentration (Average ± SD) ([2]; male workers, n 213): 1,215 ± 2,936 ng mL^−1; Serum concentration, GM [2, 13]: 222 ng/mL; Serum concentration, GM [2, 14]: 68 ng/mL; Serum concentration, GM [2, 15]: 527 ng/mL

**Q.** Which “Average annual decline rate of serum concentration” value ([1]; 2008 to 2009, 36 workers) does the source give for `O=S(=O)(O)C(F)(F)C(F)(F)C(F)(F)C(F)(F)C(F)(F)C(F)(F)C(F)(F)C(F)(F)F` [PFOS, perfluorooctanesulfonate] here?
**A.** 37%

**Q.** And the “Half-life estimated by annual decline rates” value ([1]; k = average annual serum decline rate, no new inputs assumed, two time points)?
**A.** 1.9 years

**Q.** What about the “Serum concentration, GM” value ([2]; 46 workers sampled at least three times, 2008) of the same compound?
**A.** 1751 ng/mL

**Q.** And the “Serum concentration, GM” value ([2]; 46 workers sampled at least three times, 2009)?
**A.** 1095 ng/mL

**Q.** What about the “Serum concentration, GM” value ([2]; 46 workers sampled at least three times, 2012) of the same compound?
**A.** 2580 ng/mL

**Q.** And the “Serum concentration, mean” value ([2]; All workers, N 302)?
**A.** 5624 ng/mL

**Q.** And the “Serum concentration, range” value ([2]; All workers, N 302)?
**A.** 50.3 to 118000 ng/mL

**Q.** What about the “Serum PFAA level” value ([2]; Electrolytic Department, length of service 1-3 years) of the same compound?
**A.** 1827

**Q.** And the “Serum PFAA level” value [2, 3]?
**A.** 772

**Q.** What about the “Serum PFAA level” value ([2]; Electrolytic Department, length of service >3 years) of the same compound?
**A.** 1393

**Q.** What about the “Serum concentration, mean” value ([2]; Electrolytic department, N 74) of the same compound?
**A.** 1909 ng/mL

**Q.** What about the “Serum concentration, median” value ([2]; Electrolytic department, N 74) of the same compound?
**A.** 1541 ng/mL

**Q.** And the “Serum concentration, range” value ([2]; Electrolytic department, N 74)?
**A.** 234 to 8501 ng/mL

**Q.** And the “Serum concentration, mean” value [2, 4]?
**A.** 514 ng/mL

**Q.** And the “Serum concentration, median” value [2, 4]?
**A.** 267 ng/mL

**Q.** What about the “Serum concentration, range” value [2, 4] of the same compound?
**A.** 103 to 1890 ng/mL

**Q.** What about the “Serum PFAA level” value [2, 5] of the same compound?
**A.** 641

**Q.** What about the “Serum PFAA level” value [2, 6] of the same compound?
**A.** 140

**Q.** And the “Serum PFAA level” value [2, 7]?
**A.** 728

**Q.** And the “Serum concentration, mean” value ([2]; Management office, N 92)?
**A.** 1144 ng/mL

**Q.** What about the “Serum concentration, median” value ([2]; Management office, N 92) of the same compound?
**A.** 616 ng/mL

**Q.** And the “Serum concentration, range” value ([2]; Management office, N 92)?
**A.** 50.3 to 7910 ng/mL

**Q.** What about the “Serum PFAA level” value [2, 8] of the same compound?
**A.** 888

**Q.** And the “Serum PFAA level” value ([2]; Research Building, length of service < 1 year)?
**A.** 318

**Q.** And the “Serum PFAA level” value [2, 9]?
**A.** 890

**Q.** What about the “Serum concentration, mean” value ([2]; Research building, N 27) of the same compound?
**A.** 1195 ng/mL

**Q.** And the “Serum concentration, median” value ([2]; Research building, N 27)?
**A.** 736 ng/mL

**Q.** And the “Serum concentration, range” value ([2]; Research building, N 27)?
**A.** 101 to 7450 ng/mL

**Q.** And the “Serum PFAA level” value [2, 10]?
**A.** 5463

**Q.** And the “Serum PFAA level” value [2, 11]?
**A.** 5174

**Q.** What about the “Serum PFAA level” value [2, 12] of the same compound?
**A.** 7756

**Q.** What about the “Serum concentration, mean” value ([2]; Sulfonation department, N 101) of the same compound?
**A.** 14002 ng/mL

**Q.** And the “Serum concentration, median” value ([2]; Sulfonation department, N 101)?
**A.** 5544 ng/mL

**Q.** And the “Serum concentration, range” value ([2]; Sulfonation department, N 101)?
**A.** 416 to 118000 ng/mL

**Q.** And the “Serum concentration, geometric mean” value [2]?
**A.** 1677 ng/mL

**Q.** And the “Average serum concentration (Average ± SD)” value ([2]; female workers, n 89)?
**A.** 2,221 ± 4,791 ng mL^−1

**Q.** What about the “Average serum concentration (Average ± SD)” value ([2]; male workers, n 213) of the same compound?
**A.** 7,040 ± 15382 ng mL^−1

**Q.** And the “Serum concentration below which 85 percent of the population lies” value ([2]; present study, workers)?
**A.** 6775 ng/mL

**Q.** What about the “Serum PFOS concentration” value ([2]; serum, sampling year 2008, individual occupational workers) of the same compound?
**A.** 853 ng/mL and 83 ng/mL and 463 ng/mL and 635 ng/mL and 357 ng/mL and 25000 ng/mL and 4570 ng/mL and 4540 ng/mL and 460 ng/mL and 3220 ng/mL and 4170 ng/mL and 3160 ng/mL and 2690 ng/mL and 650 ng/mL and 620 ng/mL and 250 ng/mL and 3580 ng/mL and 3030 ng/mL and 1770 ng/mL and 5220 ng/mL and 1970 ng/mL and 3940 ng/mL and 2600 ng/mL and 8430 ng/mL and 7450 ng/mL and 3800 ng/mL and 1450 ng/mL and 1280 ng/mL

**Q.** What about the “Serum concentration, GM” value [2, 13] of the same compound?
**A.** 1861 ng/mL

**Q.** And the “Serum concentration, GM” value [2, 14]?
**A.** 782 ng/mL

**Q.** What about the “Serum concentration, GM” value [2, 15] of the same compound?
**A.** 1876 ng/mL
